In DBAASP:
In brackets after ≈: the same amount, converted by molar mass.

Legend:
Test in all cases: ≥ marks a high value that may be exact or a test limit, other limits are often not marked, values filed in µg/mL are converted to µM
[1] = system: Escherichia coli ATCC 25922
[2] = system: Listeria monocytogenes CMCC 54002
[3] = system: Salmonella typhimurium CMCC 50013
[4] = system: Shigella dysenteriae CMCC 51302
[5] = system: Staphylococcus aureus ATCC 29213
[6] = system: Streptococcus mutans
[7] = system: Streptococcus pyogenes ATCC 12344
[8] = system: Acinetobacter sp.
[9] = system: Bacillus subtilis ATCC 6633
[10] = system: Escherichia coli
[11] = system: Pseudomonas aeruginosa ATCC 25668
[12] = system: Staphylococcus aureus ATCC 9144
[13] = system: Enterobacter cloacae
[14] = system: Escherichia coli P4
[15] = system: Klebsiella aerogenes
[16] = system: Klebsiella pneumoniae
[17] = system: Pseudomonas aeruginosa
[18] = system: Serratia marcescens
[19] = system: Klebsiella pneumoniae ATCC 13883
[20] = system: Listeria monocytogenes ATCC 35152
[21] = system: Pseudomonas aeruginosa ATCC 27853
[22] = system: Staphylococcus aureus ATCC 25923
[23] = system: Acinetobacter baumannii ATCC 19606
[24] = system: Acinetobacter baumannii ATCC BAA-1605
[25] = system: Acinetobacter baumannii ATCC BAA-747
[26] = system: Acinetobacter baumannii NR-13375
[27] = system: Acinetobacter baumannii NR-9667
[28] = system: Pseudomonas aeruginosa 1017
[29] = system: Pseudomonas aeruginosa 1109
[30] = system: Pseudomonas aeruginosa 1125
[31] = system: Pseudomonas aeruginosa 16011
[32] = system: Pseudomonas aeruginosa ATCC 10145
[33] = system: Pseudomonas aeruginosa ATCC 15442
[34] = system: Pseudomonas aeruginosa ATCC 25619
[35] = system: Pseudomonas aeruginosa ATCC 35032
[36] = system: Pseudomonas aeruginosa ATCC 9027
[37] = system: Pseudomonas aeruginosa ATCC 9721
[38] = system: Pseudomonas aeruginosa ATCC BAA-1744
[39] = system: Staphylococcus aureus ATCC 43300
[40] = system: Staphylococcus aureus ATCC 6538
[41] = system: Staphylococcus aureus ATCC BAA-44
[42] = system: Staphylococcus aureus NRS 19
[43] = system: Staphylococcus aureus NRS 1
[44] = system: Staphylococcus aureus NRS 72
[45] = system: Staphylococcus aureus RN4220
[46] = system: Staphylococcus aureus USA 100
[47] = system: Staphylococcus aureus USA 200
[48] = system: Staphylococcus aureus USA 300
[49] = system: Staphylococcus aureus VRSA1
[50] = system: Staphylococcus epidermidis NRS 101

## CC(C)C[C@H](NC(=O)CN)C(=O)N[C@@H](Cc1ccccc1)C(=O)N[C@@H](CCCN=C(N)N)C(=O)N[C@@H](C)C(=O)N[C@@H](CC(C)C)C(=O)N[C@@H](CC(C)C)C(=O)N[C@@H](CCCN=C(N)N)C(=O)N[C@@H](CC(C)C)C(=O)N[C@@H](CC(C)C)C(=O)N[C@@H](CCCN=C(N)N)C(=O)N[C@@H](CO)C(=O)N[C@@H](CC(C)C)C(=O)N[C@@H](Cc1c[nH]c2ccccc12)C(=O)N[C@@H](CCCN=C(N)N)C(=O)N[C@@H](CC(C)C)C(=O)N[C@@H](CC(C)C)C(=O)N[C@@H](CC(C)C)C(=O)N[C@@H](CCCN=C(N)N)C(=O)N[C@@H](C)C(=O)O [GLFRALLRLLRSLWRLLLRA]
[1]
  MIC: > 64 µM
[2]
  MIC: ≥ 64 µM
[3]
  MIC: ≥ 64 µM
[4]
  MIC: ≥ 64 µM
[5]
  MIC: > 64 µM
[6]
  MIC: ≥ 64 µM
[7]
  MIC: ≥ 64 µM

## CC[C@H](C)[C@H](N)C(=O)N[C@@H](CCCCN)C(=O)N1CCC[C@H]1C(=O)N[C@@H](C)C(=O)NCC(=O)N[C@@H](CCCCN)C(=O)N[C@@H](CC(C)C)C(=O)N[C@@H](Cc1ccccc1)C(=O)N[C@@H](CCCCN)C(=O)N[C@@H](CC(C)C)C(=O)N[C@@H](Cc1ccccc1)C(=O)N[C@@H](CCCCN)C(N)=O [IKPAGKLFKLFK]
[8]
  MIC: ≥ 46.1 µM
[9]
  MIC: ≥ 368 µM
[10]
  MIC: 368 µM (≈ 512 µg/mL)
[11]
  MIC: ≥ 368 µM
[12]
  MIC: ≥ 368 µM

## CC[C@H](C)[C@H](NC(=O)[C@H](Cc1cnc[nH]1)NC(=O)[C@@H](NC(=O)[C@H](CCCN=C(N)N)NC(=O)[C@@H](N)C(C)C)[C@@H](C)CC)C(=O)N[C@@H](CO)C(=O)NCC(=O)N[C@@H](CO)C(=O)N[C@@H](CO)C(=O)N[C@@H](CC(C)C)C(=O)NCC(=O)N[C@@H](Cc1c[nH]c2ccccc12)C(=O)N[C@@H](CC(C)C)C(=O)N[C@H](C(=O)N[C@@H](CCC(N)=O)C(=O)N[C@@H](CC(C)C)C(=O)N[C@@H](Cc1ccccc1)C(=O)N[C@@H](CCCN=C(N)N)C(=O)N[C@@H](CCCCN)C(=O)N[C@@H](CCCN=C(N)N)C(=O)N[C@H](C(=O)N[C@@H](CCC(=O)O)C(=O)N[C@@H](CO)C(=O)N[C@@H](CC(C)C)C(=O)N[C@@H](CC(C)C)C(=O)N[C@@H](CCC(N)=O)C(=O)N[C@@H](CCCCN)C(=O)N[C@@H](CO)C(=O)O)[C@@H](C)CC)[C@@H](C)CC [VRIHISGSSLGWLIQLFRKRIESLLQKS]
[13]
  MIC: ≥ 78.4 µM
[1]
  MIC: 55.4 µM (≈ 181 µg/mL)
[14]
  MIC: ≥ 55.4 µM
[10]
  MIC: 78.4 µM (≈ 256 µg/mL)
[15]
  MIC: ≥ 78.4 µM
[16]
  MIC: > 78.4 µM
[17]
  MIC: > 78.4 µM
[18]
  MIC: ≥ 157 µM
[5]
  MIC: 55.4 µM (≈ 181 µg/mL)

## CC(C)C[C@H](NC(=O)[C@H](CCCN=C(N)N)NC(=O)[C@H](CCCCN)NC(=O)[C@@H](N)Cc1c[nH]c2ccccc12)C(=O)N[C@H](C(=O)N[C@@H](C)C(=O)N[C@@H](C)C(=O)N[C@@H](CO)C(=O)N[C@@H](C)C(=O)N[C@@H](CCCCN)C(=O)N[C@@H](CCCCN)C(=O)N[C@@H](CCCCN)C(N)=O)C(C)C [WKRLVAASAKKK]
[1]
  MIC: 10.8 µM (≈ 15 µg/mL)
[19]
  MIC: 18 µM (≈ 25 µg/mL)
[20]
  MIC: 10.8 µM (≈ 15 µg/mL)
[21]
  MIC: 14.4 µM (≈ 20 µg/mL)
[22]
  MIC: 7.22 µM (≈ 9.99 µg/mL)

## CC[C@H](C)[C@H](NC(=O)[C@H](CCCN=C(N)N)NC(=O)[C@H](CCCN=C(N)N)NC(=O)[C@H](CC(C)C)NC(=O)[C@H](Cc1c[nH]c2ccccc12)NC(=O)[C@H](C)NC(=O)[C@H](CCCCN)NC(=O)[C@@H](NC(=O)[C@H](CCCN=C(N)N)NC(=O)[C@H](CCCN=C(N)N)NC(=O)[C@H](CC(C)C)NC(=O)[C@@H](N)Cc1c[nH]c2ccccc12)[C@@H](C)CC)C(=O)N[C@@H](CCCCN)C(=O)N[C@@H](C)C(=O)O [WLRRIKAWLRRIKA]
[23]
  MIC: 2 µM (≈ 3.73 µg/mL)
[24]
  MIC: 2 µM (≈ 3.73 µg/mL)
[25]
  MIC: 2 µM (≈ 3.73 µg/mL)
[26]
  MIC: 2 µM (≈ 3.73 µg/mL)
[27]
  MIC: 4 µM (≈ 7.47 µg/mL)
[28]
  MIC: ≥ 32 µM
[29]
  MIC: 4 µM (≈ 7.47 µg/mL)
[30]
  MIC: 8 µM (≈ 14.9 µg/mL)
[31]
  MIC: 16 µM (≈ 29.9 µg/mL)
[32]
  MIC: 8 µM (≈ 14.9 µg/mL)
[33]
  MIC: 8 µM (≈ 14.9 µg/mL)
[34]
  MIC: 8 µM (≈ 14.9 µg/mL)
[21]
  MIC: 8 µM (≈ 14.9 µg/mL)
[35]
  MIC: 8 µM (≈ 14.9 µg/mL)
[36]
  MIC: 4 µM (≈ 7.47 µg/mL)
[37]
  MIC: 8 µM (≈ 14.9 µg/mL)
[38]
  MIC: 8 µM (≈ 14.9 µg/mL)
[39]
  MIC: 4 µM (≈ 7.47 µg/mL)
[40]
  MIC: 2 µM (≈ 3.73 µg/mL)
[41]
  MIC: 4 µM (≈ 7.47 µg/mL)
[42]
  MIC: 4 µM (≈ 7.47 µg/mL)
[43]
  MIC: 2 µM (≈ 3.73 µg/mL)
[44]
  MIC: 4 µM (≈ 7.47 µg/mL)
[45]
  MIC: 4 µM (≈ 7.47 µg/mL)
[46]
  MIC: 2 µM (≈ 3.73 µg/mL)
[47]
  MIC: 4 µM (≈ 7.47 µg/mL)
[48]
  MIC: 4 µM (≈ 7.47 µg/mL)
[49]
  MIC: 4 µM (≈ 7.47 µg/mL)
[50]
  MIC: 2 µM (≈ 3.73 µg/mL)
